Experimental data taken from PubChem BioAssay AID332 (DTP/NCI, 2004).
“And” between values parts separate entries of the source, which are not always exact repeats. Identical values can stand only once. Records with an inconclusive call do not appear.

System: mice, ADJ-PC-20 plasma cell tumor sc, T/C %
Assay: NCI In Vivo Anticancer Drug Screen. Data for tumor model ADJ-PC-20 Plasma Cell (subcutaneous) in unknown mice
Settings: endpoint: mean tumor weight, higher = larger tumour
Experimental: The antitumor activity of compounds was measured in mice bearing transplantable tumors. Survival or tumor size were measured and the results are expressed as the measurement made in the treated group (T) divided by the measurement made in the vehicle treated control group (C). The tumor model used in this assay is ADJ-PC-20 Plasma Cell (subcutaneous) in unknown mice

[1] = dose: 3.1 mg/kg/injection, schedule: Q01DX010 (ip), vehicle: carboxymethylcellulose (CMC)
[2] = dose: 12.5 mg/kg/injection, schedule: Q01DX010 (ip), vehicle: carboxymethylcellulose (CMC)
[3] = dose: 25.0 mg/kg/injection, schedule: Q01DX010 (ip), vehicle: carboxymethylcellulose (CMC)

SMILES: O=C(Nc1ccc(C2=NCCN2)cc1)c1ccc(C(=O)Nc2ccc(C3=NCCN3)cc2)c(Cl)c1
- T/C (dose: 1.62 mg/kg/injection, schedule: Q01DX010 (ip), vehicle: water): 108 % of control
- T/C (dose: 3.12 mg/kg/injection, schedule: Q01DX010 (ip), vehicle: water): 152 % of control
- T/C (dose: 6.25 mg/kg/injection, schedule: Q01DX010 (ip), vehicle: water): 94 % of control
- T/C (dose: 6.3 mg/kg/injection, schedule: Q01DX010 (ip), vehicle: water): 64 % of control
- T/C (dose: 7.5 mg/kg/injection, schedule: Q01DX010 (ip), vehicle: water): 81 % of control and 83 % of control
- T/C (dose: 12.5 mg/kg/injection, schedule: Q01DX010 (ip), vehicle: water): 121 % of control
- T/C (dose: 30.0 mg/kg/injection, schedule: Q01DX010 (ip), vehicle: water): 55 % of control and 66 % of control

SMILES: CCCCn1cnc2c(=S)nc[nH]c21
- T/C (dose: 0.8 mg/kg/injection, schedule: Q01DX010 (ip), vehicle: carboxymethylcellulose (CMC)): 74 % of control
- T/C (dose: 1.6 mg/kg/injection, schedule: Q01DX010 (ip), vehicle: carboxymethylcellulose (CMC)): 68 % of control
- T/C [1]: 52 % of control
- T/C (dose: 6.3 mg/kg/injection, schedule: Q01DX010 (ip), vehicle: carboxymethylcellulose (CMC)): 41 % of control
- T/C [2]: 15 % of control
- T/C [3]: 1 % of control

SMILES: C[C@]12CCC(=O)C[C@H]1CC[C@@H]1[C@@H]2CC[C@@]2(C)[C@H]1CC[C@]2(C)O
- T/C (dose: 500.0 mg/kg/injection, schedule: Q01DX010 (sc), vehicle: steriod suspending solution): 105 % of control and 119 % of control
- T/C (dose: 1000.0 mg/kg/injection, schedule: Q01DX010 (sc), vehicle: steriod suspending solution): 96 % of control

SMILES: CS(=O)(=O)OCC(O)C(O)COS(C)(=O)=O (stereo unspecified)
- T/C (dose: 99.0 mg/kg/injection, schedule: Q01DX010 (ip), vehicle: saline): 78 % of control
- T/C (dose: 188.0 mg/kg/injection, schedule: Q01DX010 (ip), vehicle: saline): 53 % of control
- T/C (dose: 375.0 mg/kg/injection, schedule: Q01DX010 (ip), vehicle: saline): 58 % of control
- T/C (dose: 750.0 mg/kg/injection, schedule: Q01DX010 (ip), vehicle: saline): 7 % of control

SMILES: O=C(Nc1ccc(C2=NCCCN2)cc1)c1ccc(C(=O)Nc2ccc(C3=NCCCN3)cc2)cc1
- T/C (dose: 0.05 mg/kg/injection, schedule: Q01DX010 (ip), vehicle: water): 90 % of control
- T/C (dose: 0.1 mg/kg/injection, schedule: Q01DX010 (ip), vehicle: water): 83 % of control
- T/C (dose: 0.2 mg/kg/injection, schedule: Q01DX010 (ip), vehicle: water): 109 % of control
- T/C (dose: 0.4 mg/kg/injection, schedule: Q01DX010 (ip), vehicle: water): 91 % of control and 92 % of control
- T/C (dose: 3.12 mg/kg/injection, schedule: Q01DX010 (ip), vehicle: saline): 65 % of control

SMILES: CCCCNc1ncnc2c1cnn2C
- T/C [1]: 94 % of control
- T/C [2]: 122 % of control
- T/C [3]: 96 % of control
- T/C (dose: 50.0 mg/kg/injection, schedule: Q01DX010 (ip), vehicle: carboxymethylcellulose (CMC)): 109 % of control

SMILES: C[C@]12CCC(=O)C=C1CC[C@@H]1[C@@H]2CC[C@@]2(C)[C@H]1CC[C@]2(C)O
- T/C (dose: 31.25 mg/kg/injection, schedule: Q01DX010 (sc), vehicle: steriod suspending solution): 113 % of control
- T/C (dose: 62.5 mg/kg/injection, schedule: Q01DX010 (sc), vehicle: steriod suspending solution): 114 % of control
- T/C (dose: 125.0 mg/kg/injection, schedule: Q01DX010 (sc), vehicle: steriod suspending solution): 99 % of control

SMILES: CCCSc1ncnc2nc[nH]c12
- T/C (dose: 4.0 mg/kg/injection, schedule: Q01DX010 (ip), vehicle: carboxymethylcellulose (CMC)): 81 % of control
- T/C (dose: 8.0 mg/kg/injection, schedule: Q01DX010 (ip), vehicle: carboxymethylcellulose (CMC)): 43 % of control
- T/C (dose: 16.0 mg/kg/injection, schedule: Q01DX010 (ip), vehicle: carboxymethylcellulose (CMC)): 28 % of control

SMILES: O=C1C(NC(=O)C2CCCCC2)=C(N2CC2)C(=O)C(NC(=O)C2CCCCC2)=C1N1CC1
- T/C (dose: 37.5 mg/kg/injection, schedule: Q01DX010 (ip), vehicle: carboxymethylcellulose (CMC)): 102 % of control and 115 % of control

SMILES: CN(N=O)C(=O)NC(C=O)C(O)C(O)C(O)CO (stereo unspecified)
- T/C (dose: 50.0 mg/kg/injection, schedule: Q01DX010 (ip), vehicle: saline): 68 % of control
